The source of these data is patent US12649723B2, “Carbonohydrazonoyl dicyanide compounds comprising 2 or more aryl or heteroaryl connected via linker and use thereof” (KOREA INSTITUTE OF SCIENCE AND TECHNOLOGY, priority 2020, dated 2026).

The test system of one series is Tau-BiFC cells. The experiment in a line: Cell viability (cytotoxicity) in tau-BiFC cells, count of stained nuclei. Type of series: cell-based. Conditions: Forskolin-only group = 100% cell viability; for Cell viability (% @10 μM): compound 10 μM. As for the experimental part: (§1) In order to select novel tau protein aggregation-inhibiting substances, tau-BiFC cell model, in which formation of tau oligomers in living cells is easily observed, was used. Tau-BiFC cells were aliquoted into a 384-well plate. On the next day, the cells were treated with each of the compounds prepared according to Examples 1 to 175 at concentrations of 1 μM, 3 μM, and 10 μM, together with Forskolin (at a treatment concentration of 30 μM), which is a compound inducing tau protein aggregation by activating tau […] PKA. After 48 hours, nuclei in the cells were stained using Hoechst (at a treatment concentration of 2 μg/mL), and BiFC fluorescence intensity was automatically measured using Operetta (PerkinElmer) to count stained nuclei in each well out of the entire well plate. The group treated only with Forskolin, which induces tau protein aggregation, was set to a reference point of a 100% tau protein-aggregated state, and the effects of the compounds were confirmed using the equation “BiFC fluorescence intensity due to compound synthesized according to embodiment of present invention/(fluorescence intensity of control group treated only with Forskolin inducing tau protein aggregation−fluorescence intensity of untreated control group)×100”. Furthermore, the degree of cytotoxicity induced by the newly synthesized compound was also measured based on the 100% cell viability of the group treated only with Forskolin as a reference, and the cytotoxicity value of each compound was calculated using the equation “(number of stained nuclei in group treated with compound/number of stained nuclei in group treated with Forskolin)×100”. Based on the treatment results, substances inhibiting intracellular tau protein aggregation were selected from a series of candidate groups showing a tau protein aggregation inhibition rate of 70% or more and cell viability of 100% at a compound treatment concentration of 10 μM or more.
(§2) In order to evaluate dose-dependent tau protein aggregation inhibition effects of the compounds selected according to Experimental Example 1 on tau protein aggregation, tau-BiFC cells were treated with the selected compounds at concentrations of 0.03 μM, […], 0.3 μM, 1 μM, 3 μM, 10 μM, and 30 μM, respectively, together with Forskolin (at a treatment concentration of 30 μM), which is a tau protein aggregation inducing substance. After 48 hours, tau protein aggregation reaction and degrees of cytotoxicity were analyzed by observing images of the cells. IC50 and toxicity of the compounds were analyzed by way of nonlinear regression analysis of prism software (Graph Pad).

Another series has as its target T1, tau protein (Homo sapiens, UniProt P10636).
T1 construct: fused on or other part: Split fluorescent-protein halves for BiFC are fused to tau; In the published tau-BiFC line these are Venus VN173 and VC155
The experiment in a line: Tau-BiFC cell model: inhibition of tau protein aggregation. Type of series: cell-based. The settings on record: for remaining activity at 10 µM: compound 10 μM, BiFC fluorescence, read-out: Response (% @10 μM); for IC50: Tau BiFC in cells, with Forskolin 30 μM, 48 hours. As for the experimental part:
as §1, §2

The mark [1] stands for this setting: 48 h, Forskolin-only group = 100% tau protein-aggregated state.

T1 sequence (P10636 2-441 isoform P10636-8 limits assumed): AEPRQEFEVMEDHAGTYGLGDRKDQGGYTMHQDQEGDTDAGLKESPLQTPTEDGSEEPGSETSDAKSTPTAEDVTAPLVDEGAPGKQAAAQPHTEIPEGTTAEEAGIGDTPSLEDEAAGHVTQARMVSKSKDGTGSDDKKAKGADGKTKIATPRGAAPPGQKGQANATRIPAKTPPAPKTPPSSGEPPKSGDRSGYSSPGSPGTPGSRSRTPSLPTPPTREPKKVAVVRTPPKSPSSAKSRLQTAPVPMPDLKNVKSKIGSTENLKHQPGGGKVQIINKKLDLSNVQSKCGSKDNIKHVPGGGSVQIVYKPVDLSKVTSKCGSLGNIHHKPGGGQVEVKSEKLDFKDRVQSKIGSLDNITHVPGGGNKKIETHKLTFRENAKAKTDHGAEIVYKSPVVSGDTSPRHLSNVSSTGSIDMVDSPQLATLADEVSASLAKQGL

With `N#CC(C#N)=NNc1ccc(OCCc2ccc(Cl)cc2)nc1` [Compound 131, (6-(4-chlorophenethoxy)pyridin-3-yl)carbonohydrazonoyl dicyanide], the “Cell viability (% @10 μM)” value in the series on Tau-BiFC cells came out at 33.4%. The remaining activity at 10 µM at tau protein (setting [1]) was 10.6%.

Broadly, the IC50 is the point on the concentration scale where inhibition reaches its midpoint. `N#CC(C#N)=NNc1ccc(NC(=O)c2ccccc2)nc1` [Compound 15, (6-benzamidopyridin-3-yl)carbonohydrazonoyl dicyanide]: the “Cell viability (% @10 μM)” value with Tau-BiFC cells stood at 79.9%. Further, the remaining activity at 10 µM at tau protein (setting [1]) is 0%. Further, at tau protein, the IC50 turned out to be 90 nM.

`N#CC(C#N)=NNc1ccc(NC(=O)c2cnco2)nc1` [Compound 114, (6-(oxazole-5-carboxamido)pyridin-3-yl)carbonohydrazonoyl dicyanide]: in the series with Tau-BiFC cells, the “Cell viability (% @10 μM)” value was 149.5%. Further, the remaining activity at 10 µM on tau protein (setting [1]) stood at 0%. The IC50 at tau protein came to 1500 nM.

As for `Cc1cnc(NC(=O)c2ccc(NN=C(C#N)C#N)cn2)cn1` [Compound 36, (6-(5-methylpyrazin-2-ylcarbamoyl)pyridin-3-yl)carbonohydrazonoyl dicyanide], the “Cell viability (% @10 μM)” value in the series with Tau-BiFC cells is 86.9%. For the same compound, the remaining activity at 10 µM at tau protein (setting [1]) amounted to 35.9%.

Consider `N#CC(C#N)=NNc1ccc(NS(=O)(=O)c2cccnc2)nc1` [Compound 60, (6-(pyridin-3-sulfonamido)pyridin-3-yl)carbonohydrazonoyl dicyanide], for which the “Cell viability (% @10 μM)” value in the series with Tau-BiFC cells is reported as 116.9%. Moreover, on tau protein (setting [1]), the remaining activity at 10 µM amounted to 90.2%.

For `Cc1cnc(NC(=O)c2ccc(NN=C(C#N)C#N)cc2Cl)cn1` [Compound 106, (3-chloro-4-(5-methylpyrazin-2-ylcarbamoyl)phenyl)carbonohydrazonoyl dicyanide], the “Cell viability (% @10 μM)” value in the series with Tau-BiFC cells turned out to be 184.9%. Besides, the remaining activity at 10 µM on tau protein (setting [1]) stood at 0%.

As to `N#CC(C#N)=NNc1ccc(OCc2ccc(C(F)(F)F)cc2)nc1` [Compound 96, (6-(4-(trifluoromethyl)benzyloxy)pyridin-3-yl)carbonohydrazonoyl dicyanide], the “Cell viability (% @10 μM)” value with Tau-BiFC cells is given as 27.5%. The remaining activity at 10 µM on tau protein (setting [1]) was 0%. On tau protein, the 50% inhibitory concentration (IC50) is 400 nM.

As to `Cc1cnc(C(=O)Nc2ccc(NN=C(C#N)C#N)cc2)cn1` [Compound 2, (4-(5-methylpyrazine-2-carboxamido)phenyl)carbonohydrazonoyl dicyanide], in the series on Tau-BiFC cells, the “Cell viability (% @10 μM)” value came out at 71.5%. Also, at tau protein (setting [1]), the remaining activity at 10 µM came to 0%. At tau protein, this compound registered an IC50 of 1400 nM.

As to `Cc1cnc(C(=O)Nc2ccc(NN=C(C#N)C#N)nc2)cn1` [Compound 14, (5-(5-methylpyrazine-2-carboxamido)pyridin-2-yl)carbonohydrazonoyl dicyanide], the “Cell viability (% @10 μM)” value with Tau-BiFC cells is given as 102%. In addition, the remaining activity at 10 µM at tau protein (setting [1]) worked out at 147%.

In the case of `N#CC(C#N)=NNc1ccc(C(=O)Nc2cccnc2)nc1` [Compound 40, (6-(pyridin-3-ylcarbamoyl)pyridin-3-yl)carbonohydrazonoyl dicyanide], the “Cell viability (% @10 μM)” value in the series on Tau-BiFC cells was 130.7%. Also, at tau protein (setting [1]), the remaining activity at 10 µM worked out at 7.9%.

Turning to `Cc1cnc(C(=O)Nc2nc3ncc(NN=C(C#N)C#N)cc3s2)cn1` [Compound 33, (2-(5-methylpyrazine-2-carboxamido)thiazolo[4,5-b]pyridin-6-yl)carbonohydrazonoyl dicyanide], the “Cell viability (% @10 μM)” value in the series with Tau-BiFC cells is 125%. Further, the remaining activity at 10 µM on tau protein (setting [1]) turned out to be 63.9%.

As for `N#CC(C#N)=NNc1ccc(Oc2ccc(C(F)(F)F)nc2)cc1` [Compound 89, (4-(6-(trifluoromethyl)pyridin-3-yloxy)phenyl)carbonohydrazonoyl dicyanide], the “Cell viability (% @10 μM)” value in the series on Tau-BiFC cells was determined as 32.5%. In addition, on tau protein (setting [1]), the remaining activity at 10 µM turned out to be 0%. Besides, the IC50 on tau protein was determined as 2400 nM.

In the case of `N#CC(C#N)=NNc1ccc(Oc2ccccc2)cn1` [Compound 70, (5-phenoxypyridin-2-yl)carbonohydrazonoyl dicyanide], the “Cell viability (% @10 μM)” value in the series on Tau-BiFC cells is 94.5%. In addition, the remaining activity at 10 µM at tau protein (setting [1]) was found to be 0%. Also, the IC50 on tau protein was found to be 310 nM.

As for `N#CC(C#N)=NNc1ccc(OCc2cnccn2)cc1` [Compound 125, (4-(pyrazin-2-ylmethoxy)phenyl)carbonohydrazonoyl dicyanide], the “Cell viability (% @10 μM)” value with Tau-BiFC cells is listed as 140.5%. Also, at tau protein (setting [1]), the remaining activity at 10 µM is 0%. On tau protein, this compound showed an IC50 of 2300 nM.

For the compound `N#CC(C#N)=NNc1ccc(C(=O)Nc2cncnc2)nc1` [Compound 42, (6-(pyrimidin-5-ylcarbamoyl)pyridin-3-yl)carbonohydrazonoyl dicyanide], the “Cell viability (% @10 μM)” value in the series with Tau-BiFC cells was 123.1%. Also, the remaining activity at 10 µM at tau protein (setting [1]) came to 0%.

Turning to `CC(Oc1ccc(NN=C(C#N)C#N)cc1)c1ccc(C(F)(F)F)cc1` (stereo not shown) [Compound 139, (4-(1-(4-(trifluoromethyl)phenyl)ethoxy)phenyl)carbonohydrazonoyl dicyanide], the Cell viability with Tau-BiFC cells (compounds marked *: measured at 3 μM) worked out at 123%. Also, the remaining activity at 3 µM at tau protein (48 h, compounds marked *: measured at 3 μM, Forskolin-only group = 100% tau protein-aggregated state, read-out: Response) turned out to be 39%.

Consider `N#CC(C#N)=NNc1ccc(Oc2ccccn2)cc1` [Compound 83, (4-(pyridin-2-yloxy)phenyl)carbonohydrazonoyl dicyanide], for which the “Cell viability (% @10 μM)” value in the series with Tau-BiFC cells is listed as 104%. Further, at tau protein (setting [1]), the remaining activity at 10 µM stood at 0%. Moreover, the IC50 against tau protein worked out at 1140 nM.

As for `N#CC(C#N)=NNc1ccc(OCc2nc3ccccc3[nH]2)cc1` [Compound 126, (4-((1H-benzo[d]imidazol-2-yl)methoxy)phenyl)carbonohydrazonoyl dicyanide], in the series on Tau-BiFC cells, the “Cell viability (% @10 μM)” value amounted to 133.2%. Further, the remaining activity at 10 µM at tau protein (setting [1]) amounted to 0%. This compound also had a half-inhibitory concentration (IC50) against tau protein of 100 nM.

Consider `Cc1ccc(C(=O)Nc2ccc(NN=C(C#N)C#N)cn2)cc1F` [Compound 22, (6-(3-fluoro-4-methylbenzamido)pyridin-3-yl)carbonohydrazonoyl dicyanide], for which, in the series with Tau-BiFC cells, the “Cell viability (% @10 μM)” value is listed as 105.8%. On tau protein (setting [1]), the remaining activity at 10 µM was 0%. The compound further displayed an IC50 on tau protein of 320 nM.

On to `N#CC(C#N)=NNc1ccc(Oc2cccnc2)c(F)c1` [Compound 72, (3-fluoro-4-(pyridin-3-yloxy)phenyl)carbonohydrazonoyl dicyanide], for which the “Cell viability (% @10 μM)” value in the series on Tau-BiFC cells is reported as 129.5%. Further, the remaining activity at 10 µM on tau protein (setting [1]) worked out at 0%. Also, the half-inhibitory concentration (IC50) against tau protein stood at 1990 nM.

For `N#CC(C#N)=NNc1ccc(NC(=O)c2cscn2)nc1` [Compound 112, (6-(thiazole-4-carboxamido)pyridin-3-yl)carbonohydrazonoyl dicyanide], the “Cell viability (% @10 μM)” value with Tau-BiFC cells is 158.2%. On tau protein (setting [1]), the remaining activity at 10 µM was found to be 0%. Further, the IC50 against tau protein is 200 nM.

Consider `N#CC(C#N)=NNc1ccc(OCCc2ccc(Cl)cc2)cc1` [Compound 123, (4-(4-chlorophenethoxy)phenyl)carbonohydrazonoyl dicyanide], for which the “Cell viability (% @10 μM)” value with Tau-BiFC cells came to 34.6%. Besides, at tau protein (setting [1]), the remaining activity at 10 µM is 0%. On tau protein, the half-maximal inhibitory concentration (IC50) is 780 nM.

Turning to `Cc1cnc(NS(=O)(=O)c2ccc(NN=C(C#N)C#N)cc2)cn1` [Compound 67, (4-(N-(5-methylpyrazin-2-yl)sulfamoyl)phenyl)carbonohydrazonoyl dicyanide], the “Cell viability (% @10 μM)” value in the series with Tau-BiFC cells worked out at 108.4%. Besides, the remaining activity at 10 µM at tau protein (setting [1]) came out at 68.2%.

On to `N#CC(C#N)=NNc1ccc(NS(=O)(=O)c2ccc(F)cc2)nc1` [Compound 64, (6-(4-fluorophenylsulfonamido)pyridin-3-yl)carbonohydrazonoyl dicyanide], for which the “Cell viability (% @10 μM)” value with Tau-BiFC cells is given as 114.2%. At tau protein (setting [1]), the remaining activity at 10 µM came out at 56%.
